Test results as given in patent EP4567035A1, “NOVEL COMPOUND AS HYPOXIA-INDUCIBLE FACTOR 1(HIF-1) INHIBITOR OR VASCULAR ENDOTHELIAL GROWTH FACTOR (VEGF) INHIBITOR, AND PHARMACEUTICAL COMPOSITION COMPRISING SAME” (Nextgen Bioscience Co., Ltd., priority 2022, dated 2024).
Like-named read-outs stand apart in the source and are kept apart here.

Key:
[1] = test system: VEGF; assay: Evaluation of VEGF protein secretion level (Human VEGF ELISA) in ARPE-19 cell medium under hypoxic conditions; assay type: cell-based
Protocol: (§1) ARPE-19 cells (Human retinal pigment epithelial cells, ATCC CRL-2302) were cultured in DMEM/F12 (LM002-08, Welgene) medium containing 10% fetal bovine serum (FBS, 16000-044, Gibco) in an incubator at 37°C with 5% carbon dioxide. When the cells grew sufficiently, they were cultured in experimental culture dishes for protein isolation and medium supernatant acquisition.
(§2) Cells were detached from the culture dish using TrypLE™ Express (Gibco). After centrifugation at 1000 rpm for 3 minutes, the supernatant was removed. The cells were counted and seeded into new culture dishes. Normoxic conditions were maintained by culturing the cells in a 37°C incubator with 5% carbon dioxide, and hypoxic conditions were maintained by culturing the cells in a hypoxic incubator with 1% oxygen, 5% carbon dioxide, and 94% nitrogen gas.
The expression of the downstream gene, angiogenesis inducer VEGF, is regulated by HIF-1α, a major transcription factor under hypoxic conditions, and the level of secreted VEGF protein can be quantitatively confirmed through ELISA (Enzyme Linked Immunosorbent Assay, Human VEGF Quantikine ELISA Kit, R&D systems). For this purpose, the following experiment was conducted.
The compounds of each Example were diluted to 0.1 nM, 1 nM, 3 nM, 10 nM, 30 nM, 100 nM, 300 nM, 1 µM and 10 µM in DMEM/F12 medium containing 1% fetal bovine serum, pretreated for 2 hours, and cultured for 24 hours under hypoxic conditions to obtain the cell medium supernatant. The supernatant was centrifuged at 1000 rpm for 3 minutes, and a specific amount was treated with a VEGF ELISA assay kit and the absorbance value was measured at 450 nm to quantitatively confirm the level of VEGF protein (see Table 1 below).
Based on the results of secreted VEGF protein expression levels in cell media treated with compounds diluted at concentrations ranging from 10 µM to 0.1 nM, the concentration range of the compound at which the secreted VEGF protein level was reduced by 50% or less compared to the untreated control group was derived.

[2] = biological target: T1, HIF-1α (Homo sapiens, UniProt Q16665); assay: Analysis of HIF-1α protein expression (Western blot) in ARPE-19 cells under mixed hypoxic condition; assay type: cell-based; conditions: concentration range at which HIF-1α expression is reduced by 50% vs untreated control
T1 construct: endogenous in cells; host or cells: ARPE-19 (ATCC CRL-2302)
Protocol: as §1, §2
In a disease of macular degeneration, hypoxia is a very important condition, and since the expression of downstream genes is regulated by HIF-1α, a transcription factor that is stabilized in hypoxic conditions, the following experiment was conducted to confirm this.
Mixed hypoxic condition was used for HIF-1α stability experiments, in which hypoxia was induced with 1% oxygen and the stability of HIF-1α was enhanced by treatment with cobalt chloride (CoCl2).
The compounds of each Example were diluted to 0.1 nM, 1 nM, 3 nM, 10 nM, 30 nM, 100 nM, 300 nM, 1 µM, and 10 µM in DMEM/F12 medium without fetal bovine serum, pretreated for 16 hours or 2 hours, and cultured for 1 hour or 24 hours in a mixed hypoxic condition. The cell medium was discarded, and protein lysates were obtained by rapidly treating with protein lysis buffer (RIPA Lysis and Extraction buffer, Thermo Fisher Scientific). LDS (4X Bolt ™ LDS Sample buffer) and reducing agent (10X Bolt ™ Sample Reducing Agent) were added together to the protein lysate, and heated at 70°C for 10 minutes. The lysate was separated by electrophoresis on a 4-12% Bis-Tris gel, transferred to a PVDF membrane, and blocked with 3% BSA (Albumin, Bovine, Fraction V, MPbio). The membrane was incubated overnight at 4°C with a mixture of anti-HIF-1α (ab179483, abcam) and anti-b-actin (MA515739, Invitrogen) antibodies at a ratio of 1:4000. The following day, the membrane was treated with a peroxidase-conjugated secondary antibody for 1 hour at room temperature, and the target protein was expressed using an ECL solution (Clarity ™ Western ECL substrate, Bio-rad) and quantified.
Based on the results of the expression level of HIF-1α in cells treated with compounds diluted from 10 µM to 0.1 nM, the concentration range of the compound at which the expression level of HIF-1α was reduced by 50% or less compared to the untreated control group was derived.

[3] = ARPE-19 cells, pretreated 2 hours, 24 hours hypoxic conditions, secreted VEGF in medium supernatant by ELISA, concentration range reducing VEGF by 50% vs untreated control, read-out: IC50 VEGF
[4] = mixed hypoxic condition (1% oxygen + CoCl2) for 1 hour, read-out: IC50 HIF-1α Hypoxia (1 hour)
[5] = values marked * in the table, mixed hypoxic condition (1% oxygen + CoCl2) for 24 hours, read-out: IC50 HIF-1α, Hypoxia(24h)

T1 sequence (Q16665 whole entry): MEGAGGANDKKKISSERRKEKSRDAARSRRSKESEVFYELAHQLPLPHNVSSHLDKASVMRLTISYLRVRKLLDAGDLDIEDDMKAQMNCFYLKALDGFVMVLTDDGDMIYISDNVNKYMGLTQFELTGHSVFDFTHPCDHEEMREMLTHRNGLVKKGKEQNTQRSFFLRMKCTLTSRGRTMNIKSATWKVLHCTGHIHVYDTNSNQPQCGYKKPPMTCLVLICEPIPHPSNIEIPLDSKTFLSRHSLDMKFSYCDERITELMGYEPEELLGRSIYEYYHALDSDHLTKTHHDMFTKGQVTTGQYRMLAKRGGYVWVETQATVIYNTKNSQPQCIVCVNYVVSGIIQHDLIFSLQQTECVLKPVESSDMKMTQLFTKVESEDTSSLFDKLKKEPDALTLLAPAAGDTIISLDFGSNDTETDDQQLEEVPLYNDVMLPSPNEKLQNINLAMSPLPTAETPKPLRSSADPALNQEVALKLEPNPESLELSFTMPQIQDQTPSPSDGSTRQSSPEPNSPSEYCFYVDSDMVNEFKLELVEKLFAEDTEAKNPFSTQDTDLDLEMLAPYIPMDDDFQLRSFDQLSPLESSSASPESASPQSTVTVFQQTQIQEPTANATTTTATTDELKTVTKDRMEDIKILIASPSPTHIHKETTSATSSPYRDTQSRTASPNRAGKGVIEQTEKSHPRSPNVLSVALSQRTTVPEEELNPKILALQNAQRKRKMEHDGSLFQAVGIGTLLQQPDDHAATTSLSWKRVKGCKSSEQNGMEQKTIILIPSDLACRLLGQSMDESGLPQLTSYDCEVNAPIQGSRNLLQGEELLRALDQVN

Row | SMILES | IC50 [1, 3] [nM] | DC50 [2, 4] [nM] | DC50 [2, 5] [nM] | IC50 ([1]; ARPE-19 cells, pretreated 2 hours, 24 hours hypoxic conditions, ELISA, read-out: concentration at which the secreted VEGF protein level was suppressed to less than 50%) [nM] | IC50 ([1]; Experimental Example 2 (HIF-1α Western blot), read-out: concentration at which the expression level of VEGF was suppressed to less than 50%) [nM]
1 | O=C(NCc1cc(F)cc(-c2cnn(Cc3ccccc3)c2)c1)c1ncnc2nc(C3CCCC3)[nH]c12 [Example 9, N-(3-(1-benzyl-1H-pyrazol-4-yl)-5-fluorobenzyl)-8-cyclopentyl-7H-purine-6-carboxamide] | 100 to 1000 | < 100 | – | – | –
2 | O=C(NCc1cc(F)cc(-c2ccsc2)c1)c1ncnc2nc(C3CCCC3)[nH]c12 [Example 40, 8-Cyclopentyl-N-(3-fluoro-5-(thiophen-3-yl)benzyl)-7H-purine-6-carboxamide] | 100 to 1000 | – | < 100 | – | –
3 | O=C(NCc1cc(F)cc(-c2cn(-c3ccc(F)cc3)nn2)c1)c1ncnc2nc(C3CCCC3)[nH]c12 [Example 119, 8-Cyclopentyl-N-(3-fluoro-5-(1-(4-fluorophenyl)-1H-1,2,3-triazol-4-yl)benzyl)-7H-purine-6-carboxamide] | > 10000 | – | 100 to 1000 | – | –
4 | O=C(NCc1cc(F)cc(Nc2ccncc2)c1)c1ncnc2nc(C3CCCC3)[nH]c12 [Example 16, 8-Cyclopentyl-N-(3-fluoro-5-(pyridin-4-ylamino)benzyl)-7H-purine-6-carboxamide] | 100 to 1000 | < 100 | – | – | –
5 | O=C(NCc1cc(F)cc(-c2cnn(-c3ccoc3)c2)c1)c1ncnc2nc(C3CCCC3)[nH]c12 [Example 124, 8-Cyclopentyl-N-(3-fluoro-5-(1-(furan-3-yl)-1H-pyrazol-4-yl)benzyl)-7H-purine-6-carboxamide] | 100 to 1000 | – | < 100 | – | –
6 | COc1ccc(-n2cc(-c3cc(F)cc(CNC(=O)c4ncnc5nc(C6CCCC6)[nH]c45)c3)cn2)cn1 [Example 43, 8-Cyclopentyl-N-(3-fluoro-5-(1-(6-methoxypyridin-3-yl)-1H-pyrazol-4-yl)benzyl)-7H-purine-6-carboxamide] | 100 to 1000 | < 100 | – | – | –
7 | O=C(NCc1cc(F)cc(-c2cnn(CC(F)(F)F)c2)c1)c1ncnc2nc(C3CCCC3)[nH]c12 [Example 3, 8-Cyclopentyl-N-(3-fluoro-5-(1-(2,2,2-trifluoroethyl)-1H-pyrazol-4-yl)benzyl)-7H-purine-6-carboxamide] | 100 to 1000 | < 100 | – | – | –
8 | O=C(NCc1ccc(-c2cnn(-c3ccc(F)cc3)c2)cc1)c1ncnc2nc(C3CCCC3)[nH]c12 [Example 108, 8-Cyclopentyl-N-(4-(1-(4-fluorophenyl)-1H-pyrazol-4-yl)benzyl)-7H-purine-6-carboxamide] | > 10000 | – | > 10000 | – | –
9 | COc1ccc(-n2cc(-c3cc(F)cc(CNC(=O)c4ncnc5nc(C6CCCC6)[nH]c45)c3)cn2)cc1 [Example 25, 8-Cyclopentyl-N-(3-fluoro-5-(1-(4-methoxyphenyl)-1H-pyrazol-4-yl)benzyl)-7H-purine-6-carboxamide] | 100 to 1000 | < 100 | – | – | –
10 | O=C(NCc1cc(F)cc(-c2cnn(C3CCCC3)c2)c1)c1ncnc2nc(C3CCCC3)[nH]c12 [Example 138, 8-Cyclopentyl-N-(3-(1-cyclopentyl-1H-pyrazol-4-yl)-5-fluorobenzyl)-7H-purine-6-carboxamide] | 100 to 1000 | – | < 100 | – | –
11 | O=C(NCc1cc(F)cc(Nc2cc[nH]n2)c1)c1ncnc2nc(C3CCCC3)[nH]c12 [Example 120, N-(3-((1H-pyrazol-3-yl)amino)-5-fluorobenzyl)-8-cyclopentyl-7H-purine-6-carboxamide] | > 10000 | – | 100 to 1000 | – | –
12 | O=C(NCc1cc(F)cc(-c2cnn(C(F)(F)F)c2)c1)c1ncnc2nc(C3CCCC3)[nH]c12 [Example 1, 8-Cyclopentyl-N-(3-fluoro-5-(1-(trifluoromethyl)-1H-pyrazol-4-yl)benzyl)-7H-purine-6-carboxamide] | 100 to 1000 | < 100 | – | – | –
13 | O=C(O)c1cccc(-n2cc(-c3cc(F)cc(CNC(=O)c4ncnc5nc(C6CCCC6)[nH]c45)c3)cn2)c1 [Example 49, 3-(4-(3-((8-Cyclopentyl-7H-purine-6-carboxamido)methyl)-5-fluorophenyl)-1H-pyrazol-1-yl)benzoic acid] | 1000 to 10000 | < 100 | – | – | –
14 | O=C(NCc1cc(F)cc(-c2cnn(C3CCCCC3)c2)c1)c1ncnc2nc(C3CCCC3)[nH]c12 [Example 139, N-(3-(1-cyclohexyl-1H-pyrazol-4-yl)-5-fluorobenzyl)-8-cyclopentyl-7H-purine-6-carboxamide] | < 100 | – | < 100 | – | –
15 | O=C(NCc1cc(F)cc(-c2cnn(-c3ccc(F)cc3)c2)c1)c1ncnc2nc(C34CCC(C3)C4)[nH]c12 [Example 115, 8-(Bicyclo[2.1.1]hexan-1-yl)-N-(3-fluoro-5-(1-(4-fluorophenyl)-1H-pyrazol-4-yl)benzyl)-7H-purine-6-carboxamide] | 100 to 1000 | – | 100 to 1000 | – | –
16 | O=C(NCc1cc(F)cc(-c2cnn(-c3ccc(I)cn3)c2)c1)c1ncnc2nc(C3CCCC3)[nH]c12 [Example 48, 8-Cyclopentyl-N-(3-fluoro-5-(1-(5-iodopyridin-2-yl)-1H-pyrazol-4-yl)benzyl)-7H-purine-6-carboxamide] | 1000 to 10000 | < 100 | – | – | –
17 | O=C(NCc1cc(F)cc(-c2cnn(-c3ccc(F)cc3)c2)c1)c1ncnc2nc(C3CCC(F)C3)[nH]c12 (single isomer, unassigned) [110(A), N-(3-Fluoro-5-(1-(4-fluorophenyl)-1H-pyrazol-4-yl)benzyl)-8-(3-fluorocyclopentyl)-7H-purine-6-carboxamide] | 100 to 1000 | – | < 100 | – | –
18 | O=C(NCc1cc(F)cc(Nc2ccon2)c1)c1ncnc2nc(C3CCCC3)[nH]c12 [Example 121, 8-Cyclopentyl-N-(3-fluoro-5-(isoxazol-3-ylamino)benzyl)-7H-purine-6-carboxamide] | > 10000 | – | 100 to 1000 | – | –
19 | O=C(NCc1cc(F)cc(-c2cnn(-c3ccc(F)cc3)c2)c1)c1ncnc2nc(C3CC(F)C3)[nH]c12 (single isomer, unassigned) [102(A), N-(3-Fluoro-5-(1-(4-fluorophenyl)-1H-pyrazol-4-yl)benzyl)-8-(3-fluorocyclobutyl)-7H-purine-6-carboxamide] | > 10000 | – | 1000 to 10000 | – | –
20 | N#Cc1ccc(Nc2cc(F)cc(CNC(=O)c3ncnc4nc(C5CCCC5)[nH]c34)c2)cc1 [Example 122, N-(3-((4-cyanophenyl)amino)-5-fluorobenzyl)-8-cyclopentyl-7H-purine-6-carboxamide] | < 100 | – | < 100 | – | –
21 | O=C(NCc1cc(F)cc(-c2cnn(-c3cscn3)c2)c1)c1ncnc2nc(C3CCCC3)[nH]c12 [Example 141, 8-Cyclopentyl-N-(3-fluoro-5-(1-(thiazol-4-yl)-1H-pyrazol-4-yl)benzyl)-7H-purine-6-carboxamide] | < 100 | – | < 100 | – | –
22 | O=C(NCc1cc(F)cc(-c2cnn(-c3ccc(F)cc3)c2)c1)c1ncnc2nc(C3CCC(F)(F)C3)[nH]c12 (centres unmarked) [Example 84, 8-(3,3-Difluorocyclopentyl)-N-(3-fluoro-5-(1-(4-fluorophenyl)-1H-pyrazol-4-yl)benzyl)-7H-purine-6-carboxamide] | – | – | – | < 100 | < 100
